These results are taken from patent publication US10913727B2, “Modulators of the integrated stress pathway” (Calico Life Sciences LLC, priority 2016, dated 2021).

The test has as its system HEK293T cells carrying the ATF4 luciferase reporter. As to the kind of experiment: ATF4-Luc assay, in vitro model of Vanishing Cell White Matter Disease (VWMD). It is filed as cell-based. The following applies: Homo sapiens, HEK-293T, 1 μg/mL tunicamycin, 7 hours, One Glo luminescence. Put shortly:
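Reporter cells were stably generated by retroviral transduction and puromycin selection, then seeded at 30,000 cells/well. Next day, cells received 1 μg/mL tunicamycin with 200 nM test compound for 7 h, and luciferase luminescence was read with a one-step reagent. Values reported as EC50.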
Consider `O=C(COc1ccc(Cl)c(F)c1)NC12CCC(NC(=O)c3ccc(C(F)F)s3)(CC1)CC2O` (centres unmarked) [Compound 623, N-{4-[2-(4-chloro-3-fluorophenoxy)acetamido]-3-hydroxybicyclo[2.2.2]octan-1-yl}-5-(difluoromethyl)thiophene-2-carboxamide], for which the EC50 (in general, the concentration giving half of the maximal effect) is 50 to 250 nM.

For the compound `O=C(COc1ccc(Cl)c(F)c1)NC12CCC(NC(=O)c3ccccc3F)(CC1)[C@@H](O)C2` [Compound 483, N-{(2S)-4-[2-(4-chloro-3-fluorophenoxy)acetamido]-2-hydroxybicyclo[2.2.2]octan-1-yl}-2-fluorobenzamide], the EC50 lay within 50 to 250 nM.

As for `CCc1cc(C(=O)NC23CCC(NC(=O)COc4ccc(Cl)c(F)c4)(CC2)C(O)C3)no1` (centres unmarked) [Compound 606, N-{4-[2-(4-chloro-3-fluorophenoxy)acetamido]-3-hydroxybicyclo[2.2.2]octan-1-yl}-5-ethyl-1,2-oxazole-3-carboxamide], the EC50 was 50 to 250 nM.

Regarding `Cc1nccnc1NC12CC(NC(=O)COc3ccc(Cl)c(F)c3)(C1)C2` [Compound 678, 2-(4-chloro-3-fluorophenoxy)-N-{3-[(3-methylpyrazin-2-yl)amino]bicyclo[1.1.1]pentan-1-yl}acetamide], the EC50 lay in the range of 1000 to 2000 nM.

On to `Cc1c(C(=O)NC23CC(NC(=O)COc4ccc(Cl)c(F)c4)(C2)C3)cnn1C` [Compound 882, N-{3-[2-(4-chloro-3-fluorophenoxy)acetamido]bicyclo[1.1.1]pentan-1-yl}-1,5-dimethyl-1H-pyrazole-4-carboxamide], for which the EC50 was over 2000 nM.

As to `Cc1noc(C(=O)NC23CCC(NC(=O)COc4ccc(Cl)c(F)c4)(CC2)[C@@H](O)C3)n1` [Compound 575, N-{(3S)-4-[2-(4-chloro-3-fluorophenoxy)acetamido]-3-hydroxybicyclo[2.2.2]octan-1-yl}-3-methyl-1,2,4-oxadiazole-5-carboxamide], the concentration for a half-maximal effect (EC50) is under 50 nM.

Take `Cc1coc(C(=O)NC23CC(NC(=O)COc4ccc(Cl)c(F)c4)(C2)C3)c1` [Compound 613, N-{3-[2-(4-chloro-3-fluorophenoxy)acetamido]bicyclo[1.1.1]pentan-1-yl}-4-methylfuran-2-carboxamide]: the EC50 fell in the range of 50 to 250 nM.

In the case of `O=C(COc1ccc2c(c1)OC(F)(F)O2)NC12CC(NC(=O)c3ccc(C(=O)O)cc3)(C1)C2` [Compound 128, 4-[(3-{2-[(2,2-difluoro-2H-1,3-benzodioxol-5-yl)oxy]acetamido}bicyclo[1.1.1]-pentan-1-yl)carbamoyl]benzoic acid], the EC50 is over 2000 nM.

For `Cc1cncc(C(=O)NC23CC(NC(=O)COc4ccc(Cl)c(F)c4)(C2)C3)n1` [Compound 650, N-{3-[2-(4-chloro-3-fluorophenoxy)acetamido]bicyclo[1.1.1]pentan-1-yl}-6-methylpyrazine-2-carboxamide], the EC50 was 50 to 250 nM.

As to `CC(=O)N1CC=C(c2ncc(C(=O)NC34CC(NC(=O)COc5ccc(Cl)c(F)c5)(C3)C4)o2)CC1` [Compound 151, 2-(1-acetyl-1,2,3,6-tetrahydropyridin-4-yl)-N-{3-[2-(4-chloro-3-fluorophenoxy)acetamido]bicyclo[1.1.1]pentan-1-yl}-1,3-oxazole-5-carboxamide], the half-maximal effective concentration (EC50) was over 2000 nM.

Turning to `O=C(COc1ccc(Cl)c(Cl)c1)NC12CCC(NC(=O)c3cnc(-c4ccc(Cl)c(F)c4)o3)(C1)C2` [Compound 110, 2-(4-chloro-3-fluorophenyl)-N-{4-[2-(3,4-dichlorophenoxy)acetamido]bicyclo-[2.1.1]hexan-1-yl}-1,3-oxazole-5-carboxamide], the half-maximal effective concentration (EC50) was in the range of 50 to 250 nM.

Turning to `O=C(COc1ccc(Cl)c(F)c1)NC12CC(NC(=O)c3noc4c3CCCC4)(C1)C2` [Compound 880, N-{3-[2-(4-chloro-3-fluorophenoxy)acetamido]bicyclo[1.1.1]pentan-1-yl}-4,5,6,7-tetrahydro-1,2-benzoxazole-3-carboxamide], the EC50 is over 2000 nM.

On to `Cc1cnc(C(=O)NC23CC(NC(=O)COc4ccc(Cl)c(F)c4)(C2)C3)o1` [Compound 478, N-{3-[2-(4-chloro-3-fluorophenoxy)acetamido]bicyclo[1.1.1]pentan-1-yl}-5-methyl-1,3-oxazole-2-carboxamide], for which the EC50 lay in the range of 50 to 250 nM.

With `Cc1cnoc1C(=O)NC12CC(NC(=O)COc3ccc(Cl)c(F)c3)(C1)C2` [Compound 367, N-{3-[2-(4-chloro-3-fluorophenoxy)acetamido]bicyclo[1.1.1]pentan-1-yl}-4-methyl-1,2-oxazole-5-carboxamide], the EC50 is over 2000 nM.

On to `O=C(COc1ccc(Cl)c(F)c1)NC12CCC(NC(=O)c3cnc(C(F)F)cn3)(CC1)CC2O` (centres unmarked) [Compound 229, N-{4-[2-(4-chloro-3-fluorophenoxy)acetamido]-3-hydroxybicyclo[2.2.2]octan-1-yl}-5-(difluoromethyl)pyrazine-2-carboxamide], for which the 50% effective concentration (EC50) was in the range of 50 to 250 nM.

Take `O=C(COc1ccc(Cl)c(F)c1)NC12CC(NC(=O)c3ncccc3Cl)(C1)C2` [Compound 899, 3-chloro-N-{3-[2-(4-chloro-3-fluorophenoxy)acetamido]bicyclo[1.1.1]pentan-1-yl}pyridine-2-carboxamide]: the EC50 lay in the range of 250 to 1000 nM.

On to `Cc1cc2ncc(C(=O)NC34CC(NC(=O)COc5ccc(Cl)c(F)c5)(C3)C4)cn2n1` [Compound 748, N-{3-[2-(4-chloro-3-fluorophenoxy)acetamido]bicyclo[1.1.1]pentan-1-yl}-2-methylpyrazolo[1,5-a]pyrimidine-6-carboxamide], for which the concentration giving a half-maximal response (EC50) was in the range of 250 to 1000 nM.

`Cc1nc(C(F)(F)F)c(C(=O)NC23CCC(NC(=O)COc4ccc(Cl)c(F)c4)(CC2)C(O)C3)s1` (centres unmarked) [Compound 504, N-{4-[2-(4-chloro-3-fluorophenoxy)acetamido]-3-hydroxybicyclo[2.2.2]octan-1-yl}-2-methyl-4-(trifluoromethyl)-1,3-thiazole-5-carboxamide]: the EC50 fell in the range of 50 to 250 nM.

In the case of `Cc1cc2c(NC34CC(NC(=O)COc5ccc(F)cc5)(C3)C4)nccn2n1` [Compound 639, 2-(4-fluorophenoxy)-N-{3-[(2-methylpyrazolo[1,5-a]pyrazin-4-yl)amino]bicyclo[1.1.1]pentan-1-yl}acetamide], the EC50 fell in the range of 50 to 250 nM.

For the compound `O=C(COc1ccc(Cl)c(F)c1)NC12CC(NC(=O)c3cc(OC(F)F)ccn3)(C1)C2` [Compound 300, N-{3-[2-(4-chloro-3-fluorophenoxy)acetamido]bicyclo[1.1.1]pentan-1-yl}-4-(difluoromethoxy)pyridine-2-carboxamide], the EC50 was 250 to 1000 nM.

In the case of `O=C(COc1ccc(Cl)c(F)c1)NC12CC(NC(=O)c3cc4ncccn4n3)(C1)C2` [Compound 122, N-{3-[2-(4-chloro-3-fluorophenoxy)acetamido]bicyclo[1.1.1]pentan-1-yl}pyrazolo[1,5-a]pyrimidine-2-carboxamide], the EC50 lay within 1000 to 2000 nM.

On to `CC(C)c1csc(C(=O)NC23CC(NC(=O)COc4ccc(Cl)c(F)c4)(C2)C3)n1` [Compound 406, N-{3-[2-(4-chloro-3-fluorophenoxy)acetamido]bicyclo[1.1.1]pentan-1-yl}-4-(propan-2-yl)-1,3-thiazole-2-carboxamide], for which the EC50 lay in the range of 50 to 250 nM.

For the compound `Cc1cc(C(=O)NC23CCC(NC(=O)COc4ccc(Cl)c(F)c4)(CC2)CC3O)on1` (centres unmarked) [Compound 330, N-{4-[2-(4-chloro-3-fluorophenoxy)acetamido]-2-hydroxybicyclo[2.2.2]octan-1-yl}-3-methyl-1,2-oxazole-5-carboxamide], the EC50 was in the range of 50 to 250 nM.
